Measured values reported in patent US12428406B2 (PMV Pharmaceuticals, Inc., priority 2019, dated 2025).

molecular target: T1, p53 Y220C (Homo sapiens, UniProt P04637, Y220C); assay: In vitro DNA binding activity assay (HTRF / TR-FRET): stabilization of p53 Y220C and increase of its DNA binding activity; type: biochemical; settings: recombinant His-tagged p53 Y220C DNA binding domain (aa 94-312), biotin-labeled consensus DNA, incubated at 27° C. or 29° C. for 60 min
T1 construct: The recombinant protein was a truncation mutant containing only amino acids 94-312 of p53; made in house; host or cells: E. coli
Procedure, shortened: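 Compounds from 4.5 mM DMSO stocks, 3-fold serial dilutions; room-temperature incubations of 15 and 20 min. SC150 = concentration raising DNA binding by 50% over no-compound control.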

T1 sequence (P04637 94-312, change not shown): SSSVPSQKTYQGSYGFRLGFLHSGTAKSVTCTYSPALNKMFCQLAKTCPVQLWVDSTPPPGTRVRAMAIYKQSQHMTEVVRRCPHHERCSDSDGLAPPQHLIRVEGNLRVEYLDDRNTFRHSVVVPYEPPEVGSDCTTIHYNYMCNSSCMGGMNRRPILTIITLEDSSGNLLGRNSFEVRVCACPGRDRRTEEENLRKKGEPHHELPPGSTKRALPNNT

Row | Structure (SMILES) | SC150 (concentration of the compound required to increase the DNA binding activity by 50%)
1 | COCC(O)CN1CCC(Nc2cccc3c2cc(C#CCNc2ccc(C(C)(C)C#N)cc2OC)n3CC(F)(F)F)CC1 (stereo not shown) [Compound 665A, 2-(4-{[3-(4-{[1-(2-hydroxy-3-methoxypropyl)piperidin-4-yl]amino}-1-(2,2,2-trifluoroethyl)-1H-indol-2-yl)prop-2-yn-1-yl]amino}-3-methoxyphenyl)-2-methylpropanenitrile] | + (+ = 0 μM ≤ SC150 < 0.05 μM)
2 | CS(=O)(=O)c1ccc(NCC#Cc2cc3c(N[C@H]4CC[C@H](N5CC6(COC6)C5)CC4)cccc3n2CC(F)(F)F)c(OC(F)(F)F)c1 [Compound 285A, 2-(3-{[4-methanesulfonyl-2-(trifluoromethoxy)phenyl]amino}prop-1-yn-1-yl)-N-[(1R,4R)-4-{2-oxa-6-azaspiro[3.3]heptan-6-yl}cyclohexyl]-1-(2,2,2-trifluoroethyl)-1H-indol-4-amine] | + (+ = 0 μM ≤ SC150 < 0.05 μM)
3 | CNC(=O)c1cc(OC)c(NCC#Cc2cc3c(N[C@H]4CC[C@H](N(C)C)CC4)cccc3n2CC(F)(F)F)cc1F [Compound 136A, 2-fluoro-5-methoxy-N-methyl-4-{[3-(4-{[(1R,4R)-4-(dimethylamino)cyclohexyl]amino}-1-(2,2,2-trifluoroethyl)-1H-indol-2-yl)prop-2-yn-1-yl]amino}benzamide] | + (+ = 0 μM ≤ SC150 < 0.05 μM)
4 | COc1cc(S(=O)(=O)N(C)CCO)ccc1NCC#Cc1cc2c(NC3CCS(=O)(=O)CC3)cccc2n1CC(F)(F)F [Compound 1038A, 4-[(3-{4-[(1,1-dioxo-1λ^6-thian-4-yl)amino]-1-(2,2,2-trifluoroethyl)-1H-indol-2-yl}prop-2-yn-1-yl)amino]-N-(2-hydroxyethyl)-3-methoxy-N-methylbenzene-1-sulfonamide] | + (+ = 0 μM ≤ SC150 < 0.05 μM)
5 | CNC(=O)c1ccc(NCC#Cc2cc3c(N[C@H]4CC[C@@H](N(C)C)CC4)cccc3n2CC(F)(F)F)c(OCF)c1 [Compound 107A, 3-(fluoromethoxy)-N-methyl-4-{[3-(4-{[(1S,4S)-4-(dimethyl-amino)cyclohexyl]amino}-1-(2,2,2-trifluoro-ethyl)-1H-indol-2-yl)prop-2-yn-1-yl]amino}benzamide] | + (+ = 0 μM ≤ SC150 < 0.05 μM)
6 | COc1cc(C(F)(F)F)ccc1NCC#Cc1cc2c(N[C@H]3CC[C@H](N(C)C)CC3)cccc2n1CC(F)(F)F [Compound 134A, (1R,4R)—N^4-[2-(3-{[2-methoxy-4-(trifluoromethyl)phenyl]amino}prop-1-yn-1-yl)-1-(2,2,2-trifluoroethyl)-1H-indol-4-yl]-N^1,N^1-dimethylcyclohexane-1,4-diamine] | + (+ = 0 μM ≤ SC150 < 0.05 μM)
7 | COc1cc(S(N)(=O)=O)ccc1NCC#Cc1cc2c(NC(CCO)CCO)cccc2n1CC(F)(F)F [Compound 4A, 4-[(3-{4-[(1,5-dihydroxypentan-3-yl)amino]-1-(2,2,2-trifluoroethyl)-1H-indol-2-yl}prop-2-yn-1-yl)amino]-3-methoxybenzene-1-sulfonamide] | + (+ = 0 μM ≤ SC150 < 0.05 μM)
8 | CNc1cc(S(C)(=O)=O)ccc1OCC#Cc1cc2c(N[C@H]3CC[C@@H](N4CC5(COC5)C4)CC3)cccc2n1CC(F)(F)F [Compound 244A, 2-{3-[4-methanesulfonyl-2-(methylamino)phenoxy]prop-1-yn-1-yl}-N-[(1S,4S)-4-{2-oxa-6-azaspiro[3.3]heptan-6-yl}cyclohexyl]-1-(2,2,2-trifluoroethyl)-1H-indol-4-amine] | ++ (++ = 0.05 μM ≤ SC150 < 0.1 μM)
9 | COc1cc(C(=O)O)c(F)cc1NCC#Cc1cc2c(N[C@H]3CC[C@H](N4CC5(COC5)C4)CC3)cccc2n1CC(F)(F)F [Compound 281A, 2-fluoro-5-methoxy-4-{[3-(4-{[(1R,4R)-4-{2-oxa-6-azaspiro[3.3]heptan-6-yl}cyclohexyl]amino}-1-(2,2,2-trifluoroethyl)-1H-indol-2-yl)prop-2-yn-1-yl]amino}benzoic acid] | + (+ = 0 μM ≤ SC150 < 0.05 μM)
10 | COCC(O)CN1CCC(Nc2c(OC)ccc3c2cc(C#CCNc2ccc(S(C)(=O)=O)cc2OC)n3CC(F)(F)F)CC1 (stereo not shown) [Compound 643A, 1-{4-[(2-{3-[(4-methanesulfonyl-2-methoxyphenyl)amino]prop-1-yn-1-yl}-5-methoxy-1-(2,2,2-trifluoroethyl)-1H-indol-4-yl)amino]piperidin-1-yl}-3-methoxypropan-2-ol] | +++ (+++ = 0.1 μM ≤ SC150 < 0.2 μM)

Results, then the compound that gave them:

Row | SC150 (concentration of the compound required to increase the DNA binding activity by 50%) | Structure (SMILES)
11 | + (+ = 0 μM ≤ SC150 < 0.05 μM) | COC(=O)c1ccc(NCC#Cc2cc3c(N[C@@H]4CCN(CC(N)=O)C[C@@H]4F)cccc3n2CC(F)(F)F)c(OC)c1 [Compound 901A, methyl 4-{[3-(4-{[(3S,4R)-1-(carbamoylmethyl)-3-fluoropiperidin-4-yl]amino}-1-(2,2,2-trifluoroethyl)-1H-indol-2-yl)prop-2-yn-1-yl]amino}-3-methoxybenzoate]
12 | + (+ = 0 μM ≤ SC150 < 0.05 μM) | COCCOc1cc(S(C)(=O)=O)ccc1NCC#Cc1cc2c(NC3CCN(CC(O)COC)CC3)cccc2n1CC(F)(F)F (stereo not shown) [Compound 637A, 1-(4-{[2-(3-{[4-methanesulfonyl-2-(2-methoxyethoxy)phenyl]amino}prop-1-yn-1-yl)-1-(2,2,2-trifluoroethyl)-1H-indol-4-yl]amino}piperidin-1-yl)-3-methoxypropan-2-ol]
13 | + (+ = 0 μM ≤ SC150 < 0.05 μM) | CNC1CCC(Nc2cccc3c2cc(C#CCNc2ccc(S(C)(=O)=O)cc2OC)n3CC(F)(F)F)C(F)C1 (stereo not shown) [Compound 39A]
14 | + (+ = 0 μM ≤ SC150 < 0.05 μM) | COCC(O)CN1CCC(Nc2cccc3c2cc(C#CCNc2ccc(S(C)(=O)=O)cc2OCF)n3CC(F)(F)F)CC1 (stereo not shown) [Compound 664A, 1-(4-{[2-(3-{[2-(fluoromethoxy)-4-methanesulfonylphenyl]amino}prop-1-yn-1-yl)-1-(2,2,2-trifluoroethyl)-1H-indol-4-yl]amino}piperidin-1-yl)-3-methoxypropan-2-ol]
15 | + (+ = 0 μM ≤ SC150 < 0.05 μM) | COc1cc(S(C)(=O)=O)ccc1NCC#Cc1cc2c(N[C@H]3CCN(C(C)C)C[C@H]3F)cccc2n1CC(F)(F)F (racemic) [Compound 795A, (rac)-N-[(3R,4S)-3-fluoro-1-(propan-2-yl)piperidin-4-yl]-2-{3-[(4-methanesulfonyl-2-methoxyphenyl)amino]prop-1-yn-1-yl}-1-(2,2,2-trifluoroethyl)-1H-indol-4-amine]
16 | + (+ = 0 μM ≤ SC150 < 0.05 μM) | CC(C)N1CCC(Nc2cccc3c2cc(C#CCNc2ccc(S(C)(=O)=O)cc2OCF)n3CC(F)(F)F)CC1 [Compound 541A, 2-(3-{[2-(fluoromethoxy)-4-methanesulfonylphenyl]amino}prop-1-yn-1-yl)-N-[1-(propan-2-yl)piperidin-4-yl]-1-(2,2,2-trifluoroethyl)-1H-indol-4-amine]
17 | + (+ = 0 μM ≤ SC150 < 0.05 μM) | COc1cc(S(C)(=O)=O)ccc1NCC#Cc1cc2c(N[C@@H]3CCOC[C@@H]3F)cccc2n1CC(F)(F)F [Compound 1026A, N-[(3R,4R)-3-fluorooxan-4-yl]-2-{3-[(4-methanesulfonyl-2-methoxyphenyl)amino]prop-1-yn-1-yl}-1-(2,2,2-trifluoroethyl)-1H-indol-4-amine]
18 | + (+ = 0 μM ≤ SC150 < 0.05 μM) | COc1cc(S(C)(=O)=O)ccc1NCC#Cc1cc2c(N[C@H]3CCNC[C@H]3F)cccc2n1CC(F)(F)F [Compound 848A]
19 | + (+ = 0 μM ≤ SC150 < 0.05 μM) | CCN(CC)[C@H]1CC[C@H](Nc2cccc3c2cc(C#CCNc2ccc(S(N)(=O)=O)cc2OC)n3CC(F)(F)F)CC1 [Compound 146A, 3-methoxy-4-{[3-(4-{[(1R,4R)-4-(diethyl-amino)cyclohexyl]amino}-1-(2,2,2-trifluoroethyl)-1H-indol-2-yl)prop-2-yn-1-yl]amino}benzene-1-sulfonamide]
20 | + (+ = 0 μM ≤ SC150 < 0.05 μM) | CNC(=O)c1cc(OC)c(NCC#Cc2cc3c(N[C@@H]4CCN(C)C[C@@H]4F)cccc3n2CC(F)(F)F)cc1F [Compound 826A, 2-fluoro-4-{[3-(4-{[(3S,4R)-3-fluoro-1-methylpiperidin-4-yl]amino}-1-(2,2,2-trifluoroethyl)-1H-indol-2-yl)prop-2-yn-1-yl]amino}-5-methoxy-N-methylbenzamide]
21 | + (+ = 0 μM ≤ SC150 < 0.05 μM) | COc1cc(S(=O)(=O)N(C)CCN(C)C)ccc1NCC#Cc1cc2c(NC3CCS(=O)(=O)CC3)cccc2n1CC(F)(F)F [Compound 1043A, N-[2-(dimethylamino)ethyl]-4-[(3-{4-[(1,1-dioxo-1λ^6-thian-4-yl)amino]-1-(2,2,2-trifluoroethyl)-1H-indol-2-yl}prop-2-yn-1-yl)amino]-3-methoxy-N-methylbenzene-1-sulfonamide]
22 | + (+ = 0 μM ≤ SC150 < 0.05 μM) | COC(=O)c1ccc(NCC#Cc2cc3c(N[C@@H]4CCN(CCO)C[C@@H]4F)cccc3n2CC(F)(F)F)c(OC)c1 [Compound 899A, methyl 4-{[3-(4-{[(3S,4R)-3-fluoro-1-(2-hydroxyethyl)piperidin-4-yl]amino}-1-(2,2,2-trifluoroethyl)-1H-indol-2-yl)prop-2-yn-1-yl]amino}-3-methoxybenzoate]
